From ChEMBL document CHEMBL3885861, “Open TG-GATES”

Species on record: Rattus norvegicus
Test: Open TG-GATES - Regimen: Daily Repeat
Assay type: toxicity, organism-based, Sprague-Dawley
Parameters: regimen Daily Repeat, gender Male, age 6 weeks
Conditions: in vivo, po, route gavage; for KIDNEY_L / KIDNEY_R / KIDNEY_TOTAL: tissue Kidney; for AST / CRE / GLC / IP / K / LDH / RALB / TBIL / TC / TP / gamma-GTP: tissue Plasma
[1] = 0 mg/kg, 72 h, dose level Control, time 3 day
[2] = 0 mg/kg, 72 h, tissue Blood, dose level Control, time 3 day
[3] = 0 mg/kg, […], dose level Control, time 7 day
[4] = 0 mg/kg, […], dose level Control, time 14 day
[5] = 0 mg/kg, […], dose level Control, time 28 day
[6] = 0 mg/kg, […], tissue Blood, dose level Control, time 7 day
[7] = 0 mg/kg, […], tissue Blood, dose level Control, time 14 day
[8] = 0 mg/kg, […], tissue Blood, dose level Control, time 28 day
[9] = 10 mg/kg, 72 h, dose level Low, time 3 day
[10] = 10 mg/kg, 72 h, tissue Blood, dose level Low, time 3 day
[11] = 10 mg/kg, […], dose level Low, time 7 day
[12] = 10 mg/kg, […], dose level Low, time 14 day
[13] = 10 mg/kg, […], dose level Low, time 28 day
[14] = 10 mg/kg, […], tissue Blood, dose level Low, time 7 day
[15] = 10 mg/kg, […], tissue Blood, dose level Low, time 14 day
[16] = 10 mg/kg, […], tissue Blood, dose level Low, time 28 day

Compound: CN(C)CCCN1c2ccccc2CCc2ccccc21 [IMIPRAMINE]
- TERMINAL_BW [1]: 230.9 g
- APTT [2]: 16.3 s
- Bas [2]: 0%
- Eos [2]: 1%
- Fbg [2]: 278.8 mg/dL
- Ht [2]: 40.6%
- Lym [2]: 77.8%
- MCHC [2]: 32.6%
- MCV [2]: 63.2 fL
- Mono [2]: 3%
- PT [2]: 15.8 s
- Plat [2]: 111.4 x10_4/uL
- RBC [2]: 642.2 x10_4/ul
- Ret [2]: 6.7%
- KIDNEY_L [1]: 1 g
- KIDNEY_R [1]: 1 g
- KIDNEY_TOTAL [1]: 2 g
- AST [1]: 68.2 IU/L
- CRE [1]: 0.2 mg/dL
- GLC [1]: 180.6 mg/dL
- IP [1]: 7.7 mg/dL
- K [1]: 4.2 meq/L
- LDH [1]: 64.8 IU/L
- RALB [1]: 2.6 g/dL
- TBIL [1]: 0.056 mg/dL
- TC [1]: 79.2 mg/dL
- TP [1]: 5.7 g/dL
- gamma-GTP [1]: 1 IU/L
- TERMINAL_BW [3]: 270.9 g
- TERMINAL_BW [4]: 328.3 g
- TERMINAL_BW [5]: 419.8 g
- APTT [6]: 15.4 s
- Bas [6]: 0.2%
- Eos [6]: 1%
- Fbg [6]: 292 mg/dL
- Ht [6]: 41.2%
- Lym [6]: 77.4%
- MCHC [6]: 32.9%
- MCV [6]: 63.5 fL
- Mono [6]: 2.4%
- PT [6]: 15.4 s
- Plat [6]: 123.5 x10_4/uL
- RBC [6]: 649.4 x10_4/ul
- Ret [6]: 6.1%
- APTT [7]: 16 s
- Bas [7]: 0.4%
- Eos [7]: 0.8%
- Fbg [7]: 279.4 mg/dL
- Ht [7]: 42.1%
- Lym [7]: 79.2%
- MCHC [7]: 33.2%
- MCV [7]: 60.6 fL
- Mono [7]: 1.8%
- PT [7]: 15.6 s
- Plat [7]: 119.8 x10_4/uL
- RBC [7]: 695.6 x10_4/ul
- Ret [7]: 4.6%
- APTT [8]: 15.9 s
- Bas [8]: 0%
- Eos [8]: 1.2%
- Fbg [8]: 294.2 mg/dL
- Ht [8]: 44.1%
- Lym [8]: 80.6%
- MCHC [8]: 33.5%
- MCV [8]: 57.9 fL
- Mono [8]: 2.2%
- PT [8]: 15.4 s
- Plat [8]: 94.4 x10_4/uL
- RBC [8]: 761.4 x10_4/ul
- Ret [8]: 2.4%
- KIDNEY_L [3]: 1.1 g
- KIDNEY_R [3]: 1.1 g
- KIDNEY_TOTAL [3]: 2.2 g
- KIDNEY_L [4]: 1.3 g
- KIDNEY_R [4]: 1.2 g
- KIDNEY_TOTAL [4]: 2.5 g
- KIDNEY_L [5]: 1.4 g
- KIDNEY_R [5]: 1.4 g
- KIDNEY_TOTAL [5]: 2.9 g
- AST [3]: 66.2 IU/L
- CRE [3]: 0.2 mg/dL
- GLC [3]: 185.6 mg/dL
- IP [3]: 7.7 mg/dL
- K [3]: 4 meq/L
- LDH [3]: 114 IU/L
- RALB [3]: 2.6 g/dL
- TBIL [3]: 0.056 mg/dL
- TC [3]: 81.4 mg/dL
- TP [3]: 5.9 g/dL
- gamma-GTP [3]: 0.4 IU/L
- AST [4]: 63.6 IU/L
- CRE [4]: 0.2 mg/dL
- GLC [4]: 183.8 mg/dL
- IP [4]: 6.8 mg/dL
- K [4]: 4.2 meq/L
- LDH [4]: 97.4 IU/L
- RALB [4]: 2.6 g/dL
- TBIL [4]: 0.05 mg/dL
- TC [4]: 72.6 mg/dL
- TP [4]: 5.9 g/dL
- gamma-GTP [4]: 1 IU/L
- AST [5]: 55.6 IU/L
- CRE [5]: 0.2 mg/dL
- GLC [5]: 188.8 mg/dL
- IP [5]: 6.9 mg/dL
- K [5]: 3.9 meq/L
- LDH [5]: 43.4 IU/L
- RALB [5]: 2.8 g/dL
- TBIL [5]: 0.056 mg/dL
- TC [5]: 68 mg/dL
- TP [5]: 6.3 g/dL
- gamma-GTP [5]: 0.6 IU/L
- TERMINAL_BW [9]: 229.5 g
- APTT [10]: 16.1 s
- Bas [10]: 0%
- Eos [10]: 1%
- Fbg [10]: 294 mg/dL
- Ht [10]: 41.4%
- Lym [10]: 82.6%
- MCHC [10]: 32.5%
- MCV [10]: 65.4 fL
- Mono [10]: 2.8%
- Neu [10]: 12.8%
- PT [10]: 15.9 s
- Plat [10]: 115.2 x10_4/uL
- RBC [10]: 633 x10_4/ul
- Ret [10]: 5.6%
- KIDNEY_L [9]: 1 g
- KIDNEY_R [9]: 1 g
- KIDNEY_TOTAL [9]: 2 g
- AST [9]: 67 IU/L
- CRE [9]: 0.2 mg/dL
- GLC [9]: 185.4 mg/dL
- IP [9]: 7.7 mg/dL
- K [9]: 4.1 meq/L
- LDH [9]: 63.4 IU/L
- RALB [9]: 2.6 g/dL
- TBIL [9]: 0.06 mg/dL
- TC [9]: 81.6 mg/dL
- TP [9]: 5.8 g/dL
- gamma-GTP [9]: 1 IU/L
- TERMINAL_BW [11]: 262.8 g
- TERMINAL_BW [12]: 310.9 g
- TERMINAL_BW [13]: 402.9 g
- APTT [14]: 15.6 s
- Bas [14]: 0%
- Eos [14]: 1.2%
- Fbg [14]: 291.6 mg/dL
- Ht [14]: 40.2%
- Lym [14]: 80%
- MCHC [14]: 33.3%
- MCV [14]: 62.5 fL
- Mono [14]: 1.8%
- PT [14]: 15.9 s
- Plat [14]: 120.1 x10_4/uL
- RBC [14]: 644.6 x10_4/ul
- Ret [14]: 4.8%
- APTT [15]: 16.5 s
- Bas [15]: 0.2%
- Eos [15]: 0.8%
- Fbg [15]: 281.2 mg/dL
- Ht [15]: 41.8%
- Lym [15]: 83.2%
- MCHC [15]: 33.8%
- MCV [15]: 60.5 fL
- Mono [15]: 2.2%
- PT [15]: 16.3 s
- Plat [15]: 108.3 x10_4/uL
- RBC [15]: 691.6 x10_4/ul
- Ret [15]: 4.1%
- APTT [16]: 17.3 s
- Bas [16]: 0.4%
- Eos [16]: 1.4%
- Fbg [16]: 284.6 mg/dL
- Ht [16]: 43.7%
- Lym [16]: 81.4%
- MCHC [16]: 34%
- MCV [16]: 56.5 fL
- Mono [16]: 2.4%
- PT [16]: 16.4 s
- Plat [16]: 96.2 x10_4/uL
- RBC [16]: 773.2 x10_4/ul
- Ret [16]: 2.3%
- KIDNEY_L [11]: 1.1 g
- KIDNEY_R [11]: 1.1 g
- KIDNEY_TOTAL [11]: 2.1 g
- KIDNEY_L [12]: 1.3 g
- KIDNEY_R [12]: 1.2 g
- KIDNEY_TOTAL [12]: 2.5 g
- KIDNEY_L [13]: 1.4 g
- KIDNEY_R [13]: 1.3 g
- KIDNEY_TOTAL [13]: 2.7 g
- AST [11]: 63.8 IU/L
- CRE [11]: 0.2 mg/dL
- GLC [11]: 182.6 mg/dL
- IP [11]: 7.4 mg/dL
- K [11]: 4.2 meq/L
- LDH [11]: 123.4 IU/L
- RALB [11]: 2.6 g/dL
- TBIL [11]: 0.05 mg/dL
- TC [11]: 75.8 mg/dL
- TP [11]: 5.9 g/dL
- gamma-GTP [11]: 0.8 IU/L
- AST [12]: 66.4 IU/L
- CRE [12]: 0.2 mg/dL
- GLC [12]: 175.6 mg/dL
- IP [12]: 6.8 mg/dL
- K [12]: 4.3 meq/L
- LDH [12]: 62.8 IU/L
- RALB [12]: 2.7 g/dL
- TBIL [12]: 0.048 mg/dL
- TC [12]: 72 mg/dL
- TP [12]: 6.2 g/dL
- gamma-GTP [12]: 0.4 IU/L
- AST [13]: 62.2 IU/L
- CRE [13]: 0.2 mg/dL
- GLC [13]: 183.2 mg/dL
- IP [13]: 6.9 mg/dL
- K [13]: 3.8 meq/L
- LDH [13]: 53.6 IU/L
- RALB [13]: 2.8 g/dL
- TBIL [13]: 0.052 mg/dL
- TC [13]: 64.2 mg/dL
- TP [13]: 6.3 g/dL
- gamma-GTP [13]: 1 IU/L
